Data on six molecules can be found in US20080182842A1, “L-alanine derivatives as a5beta1 antagonists” (ASTRAZENECA AB, priority 2007, published 2008).

By pIC50 is commonly meant the negative decadic logarithm of the IC50, by convention in mol/L.

pIC50: −log10 of the molar value.

The target in this experiment is α5β1 integrin (Homo sapiens, UniProt P05556+P08648). Briefly: In vitro binding assay (a): inhibition of binding of α5β1 integrin to fibronectin fragment Fn9-10 (Origen electrochemiluminescence). To be noted: recombinant human α5β1 vs Fn9-10 ligand; geometric mean where tested more than once. The text has this: (a) In Vitro Binding Assay
α5β1 integrin, sequence (P08648 42-894 limits assumed): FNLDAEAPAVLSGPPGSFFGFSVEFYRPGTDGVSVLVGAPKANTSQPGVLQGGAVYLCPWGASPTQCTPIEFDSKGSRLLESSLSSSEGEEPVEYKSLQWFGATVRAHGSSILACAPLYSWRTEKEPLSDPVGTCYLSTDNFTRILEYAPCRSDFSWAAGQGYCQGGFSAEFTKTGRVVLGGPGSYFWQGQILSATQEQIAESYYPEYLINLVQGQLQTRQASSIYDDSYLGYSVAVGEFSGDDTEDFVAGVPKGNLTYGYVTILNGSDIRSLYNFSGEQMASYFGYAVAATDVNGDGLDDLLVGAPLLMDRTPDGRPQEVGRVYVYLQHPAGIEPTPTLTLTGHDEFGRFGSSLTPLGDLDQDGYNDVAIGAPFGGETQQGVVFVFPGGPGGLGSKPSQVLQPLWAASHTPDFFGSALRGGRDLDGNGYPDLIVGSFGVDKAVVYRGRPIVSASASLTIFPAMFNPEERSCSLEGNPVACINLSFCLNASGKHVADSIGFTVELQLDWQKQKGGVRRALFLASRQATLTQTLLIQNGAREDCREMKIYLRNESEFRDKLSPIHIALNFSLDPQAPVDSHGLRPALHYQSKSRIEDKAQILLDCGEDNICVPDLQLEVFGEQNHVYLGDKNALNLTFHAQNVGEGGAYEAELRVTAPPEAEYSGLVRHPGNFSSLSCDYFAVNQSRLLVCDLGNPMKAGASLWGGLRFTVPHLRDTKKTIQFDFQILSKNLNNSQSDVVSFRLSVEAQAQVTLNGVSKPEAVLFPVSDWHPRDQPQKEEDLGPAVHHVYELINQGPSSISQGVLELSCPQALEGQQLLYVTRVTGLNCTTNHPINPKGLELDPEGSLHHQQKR
α5β1 integrin, sequence (P08648 895-1049 partner limits assumed): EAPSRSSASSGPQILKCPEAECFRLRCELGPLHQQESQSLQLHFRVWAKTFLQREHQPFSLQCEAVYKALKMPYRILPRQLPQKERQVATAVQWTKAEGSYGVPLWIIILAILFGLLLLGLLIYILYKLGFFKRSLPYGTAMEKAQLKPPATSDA
α5β1 integrin, sequence (P05556 21-798): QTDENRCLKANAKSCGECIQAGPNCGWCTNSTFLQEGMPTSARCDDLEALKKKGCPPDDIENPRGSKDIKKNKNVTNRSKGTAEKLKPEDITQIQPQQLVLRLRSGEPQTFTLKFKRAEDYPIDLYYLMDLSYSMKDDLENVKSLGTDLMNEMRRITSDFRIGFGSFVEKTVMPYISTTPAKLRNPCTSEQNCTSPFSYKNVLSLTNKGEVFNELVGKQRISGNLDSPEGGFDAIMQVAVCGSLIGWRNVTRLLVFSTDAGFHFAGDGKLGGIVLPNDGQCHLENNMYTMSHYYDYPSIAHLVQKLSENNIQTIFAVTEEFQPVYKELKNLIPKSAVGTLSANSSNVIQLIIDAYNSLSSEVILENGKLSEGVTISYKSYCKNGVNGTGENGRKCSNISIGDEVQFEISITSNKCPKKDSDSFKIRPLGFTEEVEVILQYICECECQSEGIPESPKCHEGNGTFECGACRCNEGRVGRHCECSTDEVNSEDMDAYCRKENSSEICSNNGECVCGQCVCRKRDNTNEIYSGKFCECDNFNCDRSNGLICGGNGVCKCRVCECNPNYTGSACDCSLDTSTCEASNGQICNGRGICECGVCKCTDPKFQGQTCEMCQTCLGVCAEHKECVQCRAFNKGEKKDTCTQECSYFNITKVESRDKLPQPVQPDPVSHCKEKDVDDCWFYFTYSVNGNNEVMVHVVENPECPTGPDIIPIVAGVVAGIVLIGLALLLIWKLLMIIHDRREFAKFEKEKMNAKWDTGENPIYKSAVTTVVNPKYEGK
The assay determined the ability of compounds to inhibit binding of α5β1 integrin to a cognate ligand, a fragment of human fibronectin. The assay used Origen technology (IGEN International) to measure the compound activity. Briefly, α5β1 integrin was coated onto epoxy-paramagnetic beads (Dynal Biotech UK, Bromborough, Wirral, CH62 3QL, UK, Catalogue No 140.11) and biotinylated-fibronectin ligand was coupled to strepatividin labeled Tag-NHS-Ester (BioVeris Corporation, Witney, Oxfordshire, OX28 4GE, UK, Catalogue No 110034). The ruthenium-labeled tag emits an electrochemiluminescence signal upon stimulation which is detected by the Origen reader. Thus, interaction of integrin and ligand causes association of bead and tag, and the resulting electrochemiluminescence signal reflects the level of integrin interaction with fibronectin.
20 μg of recombinant human α5β1 was coated onto 4×10(7) epoxy-paramagnetic beads according to manufacturers instructions at 4° C. for 24 hours. Integrin coating and corresponding activity was subsequently measured for each batch but typically, 25 ng of coated protein was used per assay well.
A DNA fragment encoding the domains 9-10 (amino-acids 1325-1509) of human fibronectin (Swiss-Prot Accession No. P02751) was isolated from cDNA libraries using standard molecular biology and PCR cloning techniques. The cDNA fragment was sub-cloned into a pT73.3 expression vector containing a GST-epitope tag (developed at AstraZeneca; Bagnall et al., Protein Expression and Purification, 2003, 27: 1-11). Following expression in E. coli, the expressed protein, termed Fn9-10, was purified using the GST-tag using standard purification techniques. The recombinant Fn9-10 was subsequently biotinylated using a EZ-link Sulfo-NHS-LC-Biotinylation kit (Perbio Science UK Ltd., Cramlington, Northumberland, NE23 1WA, UK, Catalogue No. 21335) and made to give a final concentration of approximately 1 mg/ml. Tag-NHS-Ester was labeled with streptavidin by incubation at room temperature following manufacturers instructions and buffer-exchanged into PBS to give a concentration of 0.5 mg/ ml. Immediately prior to the assay, biotinylated-Fn9-10 and Streptavidin-labeled Tag were diluted in Assay Buffer to give a final concentrations of 0.6 ug/ml and 1.5 ug/ml respectively. The Fn9-10 and Tag solutions were then mixed together in equal volumes and incubated on ice for at least 30 minutes prior to the assay.
Test compounds were prepared as 10 mM stock solutions in DMSO (Sigma-Aldrich Company Ltd, Gillingham, Dorset SP8 4XT Catalogue No. 154938) and serially diluted with 4% DMSO to give a range of test concentrations at ×4 required final concentration. Aliquots (20 μl) of each compound dilution were placed into each well of a 384-well round bottomed polypropylene plate (Matrix Technologies, Wilmslow, Cheshire, SK9 3LP, Catalogue No. 4340 384). Each plate also contained control wells: maximum signal was created using wells containing 20 μl of 4% DMSO, and minimum signal corresponding to no binding was created using wells containing 20 μl of 80 mM EDTA (Sigma Catalogue No. E7889).
For the assay, 25 ng(20 ul) of a5b1-bead suspension and 40 μl of the Fn9-10/Tag pre-incubated solution were added to each well containing 20 μl of compound or control solution. Assay plates were then incubated at room temperature for a minimum of 6 hours before being analysed on an Origen plate reader. The minimum value was subtracted from all values, and the signal was plotted against compound concentration to generate IC50 data.
The data in the above table was generated in an assay substantially as described above in relation to Binding Assay (a). Some of the compounds shown in the table were tested more than once in the assay. For those compounds the IC50 value shown is the geometric mean of the measured IC50 values. […]

For the molecule `CC1CCCCC1C(=O)N[C@@H](Cc1ccc(OCCc2ccc3c(n2)NCCC3)cc1)C(=O)O` (stereo partly drawn) [Example 2.2, N-[(2-methylcyclohexyl)carbonyl]-O-[2-(5,6,7,8-tetrahydro-1,8-naphthyridin-2-yl)ethyl]-L-tyrosine], the pIC50 was over 9.00.
For `CNc1cccc(CCOc2ccc(C[C@H](NC(=O)C3CCCN3C)C(=O)O)cc2)n1` (stereo partly drawn) [Example 3, N-[(1-methylpyrrolidin-2-yl)carbonyl]-O-{2-[6-(methylamino)pyridin-2-yl]ethyl}-L-tyrosine] the value was 6.97; for `CNc1cccc(CCOc2ccc(C[C@H](NC(=O)C3CCCN3C(C)C)C(=O)O)cc2)n1` (stereo partly drawn) [Example 4, N-[(1-isopropylpyrrolidin-2-yl)carbonyl]-O-{2-[6-(methylamino)pyridin-2-yl]ethyl}-L-tyrosine], 7.21; for `CC1(C(=O)N[C@@H](Cc2ccc(OCCc3ccc4c(n3)NCCO4)cc2)C(=O)O)CCCCC1` [Example 5.1, O-[2-(3,4-dihydro-2H-pyrido[3,2-b][1,4]oxazin-6-yl)ethyl]-N-[(1-methylcyclohexyl)carbonyl]-L-tyrosine], 7.96.
For `CC(C)(C(=O)N[C@@H](Cc1ccc(OCCc2ccc3c(n2)NCCO3)cc1)C(=O)O)C(=O)N1CCCC1` [Example 5.2, O-[2-(3,4-dihydro-2H-pyrido[3,2-b][1,4]oxazin-6-yl)ethyl]-N-(2,2-dimethyl-3-oxo-3-pyrrolidin-1-ylpropanoyl)-L-tyrosine] the value was 8.40.
Turning to `COC1(C(=O)N[C@@H](Cc2ccc(OCCc3ccc4c(n3)NCCO4)cc2)C(=O)O)CCOCC1` [Example 5.3, O-[2-(3,4-dihydro-2H-pyrido[3,2-b][1,4]oxazin-6-yl)ethyl]-N-[(4-methoxytetrahydro-2H-pyran-4-yl)carbonyl]-L-tyrosine], the pIC50 was 8.30.
